These results are taken from patent publication US20240025892A1 (priority 2020, published 2024).

In one series the test system is RANKL. The experiment in a line: RANKL gene expression in Ocy454 cells (RT-qPCR).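 Further: Ocy454 cells moved to 37 °C for osteocytic differentiation before compound exposure, RANKL mRNA by SYBR Green qRT-PCR, 2^−ΔΔCT with β-actin normalization, duplicate wells.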 The note with it: maximal RANKL fold induction versus DMSO, four hours. On the technique in general: Quantitative PCR measures a nucleic acid by following its amplification.
For another series, the target named is SIK1 (Homo sapiens (Human), UniProt P57059). The experiment in a line: In vitro SIK1 kinase assay. The series is classed as biochemical. As for the experimental part:
(§1) Assays were performed in base reaction buffer (20 mM Hepes (pH 7.5), 10 mM MgCl2, 1 mM EGTA, 0.02% Brij35, 0.02 mg/mL BSA, 0.1 mM Na3VO4, 2 mM DTT, 1% DMSO). Compounds were dissolved in 100% DMSO in a 10 mM stock. […] Assays were performed for 20 minutes at room temperature, after which time ^33P-ATP (10 μCi/μL) was added followed by incubation for another 120 minutes at room temperature. Thereafter, radioactivity incorporated into the pEY peptide substrate was detected by filter-binding method. Kinase activity data were expressed as the percent remaining kinase activity in test samples compared to DMSO reactions. IC50 values and curve fits were obtained using Prism (GraphPad Software).

Series [1] concerns the target NanoLuc-SIK2 fusion in HEK293 cells (Homo sapiens (Human), UniProt Q9H0K1). The experiment in a line: cell-based. As for the experimental part:
Assays were performed at Reaction Biology Corporation (Malvern, PA) in HEK293 cells from ATCC in 384 well plate format using Promega's NanoBRET TE intracellular kinase assay platform. HEK293 cells transiently expressing NanoLuc-SIK2 fusion vector were seeded into 384 well plates. Cells were pre-treated with the NanoBRET Tracer K-4 and then treated with compounds for 60 minutes in 10 point dose response format. […] IC50 values were calculated and IC50 curves were plotted using the GraphPad Prism 4 program on a sigmoidal dose response equation.

The next series addresses SIK3 (Homo sapiens (Human), UniProt Q9Y2K2). The experiment in a line: In vitro SIK3 kinase assay. Type of series: biochemical. The protocol:
as §1

The target of a further series is Recombinant SIK2 (Homo sapiens (Human), UniProt Q9H0K1). The experiment in a line: biochemical. To be noted: recombinant SIK2 2.5 nM, 1 μM ATP; read-out: SIK2 IC50. The protocol: as §1
The next series relates to CRTC2 (TORC2). Put plainly: CRTC2 nuclear translocation (PathHunter U2OS). Type of series: cell-based. To be noted: maximal CRTC2 nuclear translocation, U2OS cells, 90 minutes, maximum dose 10 μM. From the text: PathHunter® Nuclear Translocation cell lines are engineered to co-express two fusion proteins: a) Enzyme Donor (ED) tagged target protein; b) an Enzyme Acceptor (EA) tagged TAZ domain, derived from the CBP/P300 transcription factor, that localizes to the nucleus. Activation of the signaling pathway induces translocation of the ED-tagged target protein into the nucleus, which will force complementation of the two enzyme fragments, and result in the formation of a functional enzyme that will hydrolyze substrate and generate a chemiluminescent signal. U2OS CRTC2 (TORC2) translocation assays were performed in 384 well plates at Eurofins DiscoverX (Freemont, CA). Cells were treated with compounds for 90 minutes in experimental duplicates in 5 point dose response format (4-fold serial dilutions with a maximum dose of 10 μM) followed by […] readout on an Envision 2104 Multilabel Reader. In all experiments, forskolin was used as a positive control and maximal CRTC2 nuclear translocation induced by each compound is expressed as a percentage of the signal stimulated by forskolin.
Representative data are shown in FIG. 4A and presented as percent of the positive control (forskolin) signal.

[2] abbreviates: HEK293 cells, compounds for 60 minutes, read-out: SIK2 NanoBRET.

Each structure is given as a SMILES string. Like-named read-outs stand apart in the source and are kept apart here.

SIK1, sequence (P57059 whole entry): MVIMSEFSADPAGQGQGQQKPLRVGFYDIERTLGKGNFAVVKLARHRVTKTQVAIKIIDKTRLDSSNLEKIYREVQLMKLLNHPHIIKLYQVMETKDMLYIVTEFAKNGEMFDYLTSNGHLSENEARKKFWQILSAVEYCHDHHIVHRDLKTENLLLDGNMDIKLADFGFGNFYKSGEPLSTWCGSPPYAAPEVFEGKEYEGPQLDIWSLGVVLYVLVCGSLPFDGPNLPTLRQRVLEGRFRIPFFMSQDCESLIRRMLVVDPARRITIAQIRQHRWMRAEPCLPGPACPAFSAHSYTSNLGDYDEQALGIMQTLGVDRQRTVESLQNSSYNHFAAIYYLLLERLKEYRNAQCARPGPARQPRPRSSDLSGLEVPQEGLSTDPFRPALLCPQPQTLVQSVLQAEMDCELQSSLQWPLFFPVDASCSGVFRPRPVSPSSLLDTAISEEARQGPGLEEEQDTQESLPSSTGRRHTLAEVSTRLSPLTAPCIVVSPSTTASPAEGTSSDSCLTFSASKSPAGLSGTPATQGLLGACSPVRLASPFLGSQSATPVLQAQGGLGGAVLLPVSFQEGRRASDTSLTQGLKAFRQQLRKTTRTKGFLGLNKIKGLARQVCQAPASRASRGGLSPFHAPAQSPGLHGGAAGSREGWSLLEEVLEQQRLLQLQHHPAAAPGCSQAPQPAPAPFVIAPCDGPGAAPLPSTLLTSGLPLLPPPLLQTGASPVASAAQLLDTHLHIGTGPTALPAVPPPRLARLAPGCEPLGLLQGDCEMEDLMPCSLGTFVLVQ
Recombinant SIK2, sequence (Q9H0K1 whole entry, the tested form may be a part): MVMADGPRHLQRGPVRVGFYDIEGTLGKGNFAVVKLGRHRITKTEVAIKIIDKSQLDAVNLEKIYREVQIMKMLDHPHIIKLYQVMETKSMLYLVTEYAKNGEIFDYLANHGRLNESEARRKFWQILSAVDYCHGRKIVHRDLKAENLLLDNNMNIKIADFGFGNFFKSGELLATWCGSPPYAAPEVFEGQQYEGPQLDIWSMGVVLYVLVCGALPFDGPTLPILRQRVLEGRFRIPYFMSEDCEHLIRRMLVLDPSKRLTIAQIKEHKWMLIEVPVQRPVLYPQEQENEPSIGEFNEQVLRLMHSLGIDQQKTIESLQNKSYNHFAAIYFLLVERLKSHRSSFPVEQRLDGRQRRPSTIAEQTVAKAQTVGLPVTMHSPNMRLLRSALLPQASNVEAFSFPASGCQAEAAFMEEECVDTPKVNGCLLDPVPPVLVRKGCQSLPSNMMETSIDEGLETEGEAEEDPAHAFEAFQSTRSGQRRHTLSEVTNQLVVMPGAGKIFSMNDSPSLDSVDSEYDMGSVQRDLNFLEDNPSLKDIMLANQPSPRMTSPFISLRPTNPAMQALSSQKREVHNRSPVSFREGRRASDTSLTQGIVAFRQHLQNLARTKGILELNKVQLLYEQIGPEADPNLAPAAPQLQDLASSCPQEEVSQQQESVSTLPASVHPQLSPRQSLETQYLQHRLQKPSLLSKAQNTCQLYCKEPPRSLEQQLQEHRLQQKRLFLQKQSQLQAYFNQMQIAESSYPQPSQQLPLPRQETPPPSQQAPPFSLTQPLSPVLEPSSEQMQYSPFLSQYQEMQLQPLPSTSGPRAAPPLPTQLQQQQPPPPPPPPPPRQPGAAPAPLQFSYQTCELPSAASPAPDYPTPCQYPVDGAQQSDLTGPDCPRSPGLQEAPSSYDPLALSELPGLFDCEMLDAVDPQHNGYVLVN
NanoLuc-SIK2 fusion in HEK293 cells, sequence (Q9H0K1 whole entry, the tested form may be a part): as above
SIK3, sequence (Q9Y2K2 whole entry): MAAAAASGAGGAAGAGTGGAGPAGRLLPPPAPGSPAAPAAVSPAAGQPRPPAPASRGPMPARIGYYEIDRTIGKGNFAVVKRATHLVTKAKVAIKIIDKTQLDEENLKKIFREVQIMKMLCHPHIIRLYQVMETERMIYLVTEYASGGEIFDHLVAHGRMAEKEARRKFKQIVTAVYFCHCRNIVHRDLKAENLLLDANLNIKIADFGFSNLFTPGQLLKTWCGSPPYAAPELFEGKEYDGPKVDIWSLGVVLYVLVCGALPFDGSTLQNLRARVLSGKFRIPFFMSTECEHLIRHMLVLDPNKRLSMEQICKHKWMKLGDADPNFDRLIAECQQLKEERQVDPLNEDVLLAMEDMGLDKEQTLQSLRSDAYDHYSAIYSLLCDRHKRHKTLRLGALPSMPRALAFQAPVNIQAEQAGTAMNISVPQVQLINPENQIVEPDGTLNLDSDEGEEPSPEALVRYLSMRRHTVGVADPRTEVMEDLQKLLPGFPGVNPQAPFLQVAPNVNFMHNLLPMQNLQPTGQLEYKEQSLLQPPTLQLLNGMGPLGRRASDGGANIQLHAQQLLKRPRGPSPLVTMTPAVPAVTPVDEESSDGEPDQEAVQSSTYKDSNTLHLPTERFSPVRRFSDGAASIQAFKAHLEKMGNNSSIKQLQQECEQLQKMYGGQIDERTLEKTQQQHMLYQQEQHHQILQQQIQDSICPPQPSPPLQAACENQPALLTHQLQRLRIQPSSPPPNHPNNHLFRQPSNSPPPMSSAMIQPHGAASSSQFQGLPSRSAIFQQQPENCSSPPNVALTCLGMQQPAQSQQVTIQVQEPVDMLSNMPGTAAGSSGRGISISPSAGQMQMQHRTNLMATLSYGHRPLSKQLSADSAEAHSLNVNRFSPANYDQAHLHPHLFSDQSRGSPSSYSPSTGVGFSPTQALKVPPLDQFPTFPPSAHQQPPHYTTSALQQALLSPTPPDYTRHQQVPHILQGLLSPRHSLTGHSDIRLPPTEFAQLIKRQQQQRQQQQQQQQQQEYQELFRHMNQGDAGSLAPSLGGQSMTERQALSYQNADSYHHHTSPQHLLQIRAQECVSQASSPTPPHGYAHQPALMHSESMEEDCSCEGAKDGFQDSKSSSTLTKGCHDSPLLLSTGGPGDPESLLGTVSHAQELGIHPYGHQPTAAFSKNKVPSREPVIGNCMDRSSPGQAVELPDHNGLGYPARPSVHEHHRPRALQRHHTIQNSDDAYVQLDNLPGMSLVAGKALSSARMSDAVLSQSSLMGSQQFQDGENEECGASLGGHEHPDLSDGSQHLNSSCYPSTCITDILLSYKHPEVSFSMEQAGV

As for `CC1(COc2ccc3c(c2)ncn3-c2ccc3cccc(N4CCC5(CCN5)CC4)c3n2)COC1` [Example 3, 2-(5-((3-methyloxetan-3-yl)methoxy)-1H-benzo[d]imidazol-1-yl)-8-(1,7-diazaspiro[3.5]nonan-7-yl)quinoline], the “RANKL Fold Induction” value with RANKL is on record as 57.08 fold. Besides, the IC50 against SIK1 came to 18.4 nM; in series [1] (setting [2]), 8.86 nM; at SIK3, 2.24 nM; on Recombinant SIK2, 0.979 nM. In addition, the “CRTC2 Efficacy (% of forskolin)” value with CRTC2 (TORC2) is 88.5 % of forskolin.

Regarding `CC1(COc2ccc3c(c2)ncn3-c2ccc3cccc(N4CC(N)C4)c3n2)COC1` [Example 7, 1-(2-(5-((3-methyloxetan-3-yl)methoxy)-1H-benzo[d]imidazol-1-yl)quinolin-8-yl)azetidin-3-amine], the “RANKL Fold Induction” value in the series with RANKL is given as 30.37 fold. Also, the IC50 on SIK1 was determined as 138 nM; in series [1] (setting [2]) it was 43.2 nM; at SIK3 it was 11.5 nM; at Recombinant SIK2, 8.35 nM. Moreover, the “CRTC2 Efficacy (% of forskolin)” value in the series on CRTC2 (TORC2) is 89 % of forskolin.

Turning to `COCCN1CCC12CCN(c1cccc3ccc(-n4cnc5cc(OCC6(C)COC6)ccc54)nc13)CC2` [Example 12, 8-[1-(2-Methoxyethyl)-1,7-diazaspiro[3.5]nonan-7-yl]-2-[5-[(3-methyloxetan-3-yl)methoxy]benzimidazol-1-yl]quinoline], the “RANKL Fold Induction” value in the series with RANKL is 62.52 fold. Further, the IC50 worked out at 140 nM at SIK1, 925 nM in series [1], 11.9 nM against SIK3 and 4.9 nM on Recombinant SIK2. Moreover, the “CRTC2 Efficacy (% of forskolin)” value in the series with CRTC2 (TORC2) is 37.6 % of forskolin.

Turning to `CN1CC(c2cccc3ccc(-n4cnc5cc(OCC6(C)COC6)ccc54)nc23)C1` [Example 15, 8-(1-Methylazetidin-3-yl)-2-(5-((3-methyloxetan-3-yl)methoxy)-1H-benzo[d]imidazol-1-yl)quinoline], in the series on RANKL, the “RANKL Fold Induction” value worked out at 88.34 fold. Besides, the IC50 amounted to 4.37 nM on SIK1, 1.12 nM against SIK3 and 1.91 nM on Recombinant SIK2. The “CRTC2 Efficacy (% of forskolin)” value in the series with CRTC2 (TORC2) is given as 63.5 % of forskolin.

Consider `N#Cc1ccc(-c2cnc3cc(C(=O)NCc4nc5ccccc5[nH]4)ccn23)cc1` [Example 22, N-((1H-benzo[d]imidazol-2-yl)methyl)-3-(4-cyanophenyl)imidazo[1,2-a]pyridine-7-carboxamide], for which, in the series with RANKL, the “RANKL Fold Induction” value is 1.19 fold. Moreover, the IC50 against SIK1 was determined as 13000 nM; in series [1] (setting [2]), 117 nM; on SIK3, 497 nM; at Recombinant SIK2, 5.58 nM. In the series with CRTC2 (TORC2), the “CRTC2 Efficacy (% of forskolin)” value is reported as 12.9 % of forskolin.

In the case of `N#Cc1ccc(-c2cnc3cc(C(=O)NCc4cn5ccccc5n4)ccn23)cc1` [Example 24, 3-(4-cyanophenyl)-N-(imidazo[1,2-a]pyridin-2-ylmethyl)imidazo[1,2-a]pyridine-7-carboxamide], the “RANKL Fold Induction” value in the series with RANKL was 2.24 fold. Further, the IC50 turned out to be 12500 nM on SIK1, 42.1 nM in series [1] (setting [2]), 835 nM on SIK3 and 11.4 nM at Recombinant SIK2. In addition, the “CRTC2 Efficacy (% of forskolin)” value with CRTC2 (TORC2) is reported as 21.2 % of forskolin.

For the compound `N#Cc1ccc(-c2cnc3cc(C(=O)NCc4nc5ccncc5[nH]4)ccn23)cc1` [Example 25, N-((3H-imidazo[4,5-c]pyridin-2-yl)methyl)-3-(4-cyanophenyl)imidazo[1,2-a]pyridine-7-carboxamide], in the series on RANKL, the “RANKL Fold Induction” value is 1.10 fold. Moreover, the results for the IC50 on SIK1, at SIK3 and at Recombinant SIK2 were 5450 nM, 1190 nM and 9.74 nM, respectively. The “CRTC2 Efficacy (% of forskolin)” value in the series with CRTC2 (TORC2) is 1.6 % of forskolin.

In the case of `COc1ccc(OC)c(-c2cnc3cc(C(=O)NCc4cccnc4)ccn23)c1` [Example 31, 3-(2,5-dimethoxyphenyl)-N-(3-pyridylmethyl)imidazo[1,2-a]pyridine-7-carboxamide], in the series on RANKL, the “RANKL Fold Induction” value turned out to be 0.90 fold. Besides, the IC50 turned out to be 409 nM against SIK1, 4020 nM in series [1] and 76.1 nM against SIK3. The “CRTC2 Efficacy (% of forskolin)” value in the series on CRTC2 (TORC2) is on record as 31.2 % of forskolin.

As for `N#Cc1ccc(-n2cnc3cc(C(=O)NCc4cn5ccccc5n4)ccc32)cc1` [Example 33, 1-(4-cyanophenyl)-N-(imidazo[1,2-a]pyridin-2-ylmethyl)-1H-benzo[d]imidazole-5-carboxamide], in the series on RANKL, the “RANKL Fold Induction” value is 0.92 fold. Further, the IC50 turned out to be 5420 nM against SIK1, 44.8 nM in series [1] (setting [2]), 2550 nM at SIK3 and 14.2 nM at Recombinant SIK2. In addition, in the series with CRTC2 (TORC2), the “CRTC2 Efficacy (% of forskolin)” value is 21.7 % of forskolin.

With `N#Cc1ccc(-c2cnn3cc(C(=O)NCc4nc5cccnc5[nH]4)ccc23)cc1` [Example 35, 3-(4-Cyanophenyl)-N-(3H-imidazo[4,5-b]pyridin-2-ylmethyl)pyrazolo[1,5-a]pyridine-6-carboxamide], the “RANKL Fold Induction” value in the series with RANKL is recorded as 0.39 fold. In addition, the IC50 on SIK1 stood at 2090 nM; in series [1], 93.2 nM; on SIK3 it was 103 nM; on Recombinant SIK2, 7.55 nM. Besides, the “CRTC2 Efficacy (% of forskolin)” value in the series on CRTC2 (TORC2) was 8.9 % of forskolin.

Turning to `N#Cc1ccc(-c2cnn3cc(C(=O)NCc4cccnc4)ccc23)cc1` [Example 37, 3-(4-Cyanophenyl)-N-(3-pyridylmethyl)pyrazolo[1,5-a]pyridine-6-carboxamide], in the series on RANKL, the “RANKL Fold Induction” value amounted to 1.17 fold. Also, the IC50 against SIK1 was determined as 775 nM; in series [1] (setting [2]) it was 116 nM; against SIK3, 310 nM; at Recombinant SIK2 it was 32.5 nM. Moreover, the “CRTC2 Efficacy (% of forskolin)” value in the series with CRTC2 (TORC2) is listed as 40.6 % of forskolin.

Regarding `CCn1cc(-c2ccc3c(-c4ccc(C#N)cc4)cnn3c2)cn1` [Example 52, 4-[6-(1-Ethylpyrazol-4-yl)pyrazolo[1,5-a]pyridin-3-yl]benzonitrile], the “RANKL Fold Induction” value with RANKL is reported as 19.99 fold. For the same compound, the IC50 is 4.77 nM at SIK1, 1.64 nM on SIK3 and 1.11 nM at Recombinant SIK2. Moreover, the “CRTC2 Efficacy (% of forskolin)” value with CRTC2 (TORC2) is given as 77 % of forskolin.

`CCn1cc(-c2ccn3c(-c4ccc(-c5nnc(C)o5)cc4)cnc3c2)cn1` [Example 56, 2-(4-(7-(1-ethyl-1H-pyrazol-4-yl)imidazo[1,2-a]pyridin-3-yl)phenyl)-5-methyl-1,3,4-oxadiazole]: in the series with RANKL, the “RANKL Fold Induction” value is on record as 2.18 fold. The results for the IC50 against SIK1, at SIK3 and at Recombinant SIK2 were 3120 nM, 617 nM and 533 nM, respectively. Also, in the series on CRTC2 (TORC2), the “CRTC2 Efficacy (% of forskolin)” value is reported as 4.9 % of forskolin.

`CCc1nnc(-c2ccc(-c3cnc4cc(-c5cnn(C)c5)ccn34)cc2OC)o1` [Example 57, 2-ethyl-5-(2-methoxy-4-(7-(1-methyl-1H-pyrazol-4-yl)imidazo[1,2-a]pyridin-3-yl)phenyl)-1,3,4-oxadiazole]: the “RANKL Fold Induction” value with RANKL stood at 13.68 fold. Also, the IC50 is 90.8 nM at SIK1, 90.8 nM in series [1] (setting [2]), 11 nM against SIK3 and 8.76 nM on Recombinant SIK2.

For `CCc1nc(-c2c(OC)cc(-c3cnc4cc(-c5cnn(C)c5)ccn34)cc2OC)no1` [Example 61, 3-[2,6-Dimethoxy-4-[7-(1-methylpyrazol-4-yl)imidazo[1,2-a]pyridin-3-yl]phenyl]-5-ethyl-1,2,4-oxadiazole], the “RANKL Fold Induction” value in the series on RANKL worked out at 19.00 fold. The IC50 on SIK1 is 37.8 nM; on SIK3, 8.25 nM; on Recombinant SIK2, 3.07 nM. Besides, the “CRTC2 Efficacy (% of forskolin)” value in the series with CRTC2 (TORC2) is listed as 76.9 % of forskolin.

As to `COc1cc(-c2cnc3cc(C(=O)NCc4ccc(C)nc4)ccn23)cc(OC)c1C(=O)NCC(F)(F)F` [Example 68, 3-[3,5-Dimethoxy-4-(2,2,2-trifluoroethylcarbamoyl)phenyl]-N-[(6-methyl-3-pyridyl)methyl]imidazo[1,2-a]pyridine-7-carboxamide], in the series on RANKL, the “RANKL Fold Induction” value came to 2.88 fold. Moreover, the IC50 against SIK1 is 94.7 nM; on SIK3 it was 8.67 nM; at Recombinant SIK2, 12.4 nM. For the same compound, the “CRTC2 Efficacy (% of forskolin)” value in the series on CRTC2 (TORC2) is listed as 12 % of forskolin.
